Experiments:
[1] = Drug uptake in brain; type: ADME, tissue-based
[2] = AUC in plasma of rat at 10 mg/kg, po; type: ADME, organism-based; set-up: dose 10 mg/kg, route oral
Canis familiaris [3] = test: Volume of distribution at steady state in dog at 0.5 mg/kg, po; type: ADME, organism-based, Canis lupus familiaris; set-up: dose 0.5 mg/kg, route oral; conditions: in vivo
[4] = Oral bioavailability in rat at 0.1 mg/kg; type: ADME, organism-based; conditions: in vivo
[5] = AUC in brain of rat at 10 mg/kg, po; type: ADME, organism-based; set-up: dose 10 mg/kg, route oral
[6] = Oral bioavailability in dog at 0.5 mg/kg; type: ADME, organism-based, Canis lupus familiaris; conditions: in vivo
Rattus norvegicus [7] = test: Volume of distribution at steady state in rat at 0.1 mg/kg, po; type: ADME, organism-based; set-up: dose 0.1 mg/kg, route oral; conditions: in vivo
Rattus norvegicus [8] = test: Volume of distribution at steady state in rat at […], po; type: ADME, organism-based; set-up: dose 2.5 mg/kg, route oral; conditions: in vivo
[9] = Oral bioavailability in rat at […]; type: ADME, organism-based; conditions: in vivo
[10] = Oral bioavailability in rat at 2 mg/kg; type: ADME, organism-based; conditions: in vivo
Rattus norvegicus [11] = test: Volume of distribution at steady state in rat at 2 mg/kg, po; type: ADME, organism-based; set-up: dose 2 mg/kg, route oral; conditions: in vivo
MDCK [12] = test: Apparent permeability across apical to basolateral side of dog MDCK cells expressing human MDR1; type: ADME, cell-based, Canis lupus familiaris
MDCK [13] = test: Apparent permeability across basolateral to apical side of dog MDCK cells expressing human MDR1; type: ADME, cell-based, Canis lupus familiaris
Canis familiaris [14] = test: Volume of distribution at steady state in dog at […], po; type: ADME, organism-based, Canis lupus familiaris; set-up: dose 2.5 mg/kg, route oral; conditions: in vivo
[15] = Oral bioavailability in dog at […]; type: ADME, organism-based, Canis lupus familiaris; conditions: in vivo
[16] = Oral bioavailability in dog at 2 mg/kg; type: ADME, organism-based, Canis lupus familiaris; conditions: in vivo
Canis familiaris [17] = test: Volume of distribution at steady state in dog at 2 mg/kg, po; type: ADME, organism-based, Canis lupus familiaris; set-up: dose 2 mg/kg, route oral; conditions: in vivo

Row | Compound | Drug uptake [1] | other results
1 | COc1ccc2nc(C(F)F)c3c(C)nc(-c4ccccc4Cl)n3c2n1 | > 90% | 
2 | Cc1cnccc1-c1nc(C)c2c(C)nc3ccc(OC(F)(F)F)cc3n12 | > 90% | 
3 | COc1cc(OC)c2nc(C)c3c(C)nc(-c4ccncc4C)n3c2c1 | > 90% | 
4 | Cc1cnccc1-c1nc(C)c2c(C)nc3c(F)cc(F)cc3n12 | > 90% | 
5 | COc1ccc2nc(C)c3c(C)nc(-c4ccccc4C(F)(F)F)n3c2n1 | > 90% | 
6 | COc1cc(OCc2ccccc2)cc2c1nc(C)c1c(C)nc(-c3cccnc3C)n12 | > 90% | 
7 | Cc1cnccc1-c1nc(C)c2c(C)nc3c(Cl)cc(C(F)(F)F)cc3n12 | > 90% | 
8 | Cc1ccncc1-c1nc(C)c2c(C)nc3ccc(C(F)(F)F)cc3n12 | > 90% | 
9 | COc1cc(F)cc2c1nc(C)c1c(C)nc(-c3cccnc3C)n12 | > 90% | 
10 | Cc1cnccc1-c1nc(C)c2c(C)nc3ccc(F)cc3n12 | > 90% | 
11 | COc1ccc2nc(C)c3c(C(F)(F)F)nc(-c4cc(F)ccc4Cl)n3c2n1 | > 90% | 
12 | Cc1ccccc1-c1nc(C)c2c(C)nc3c(OCC4CC4)cc(F)cc3n12 | > 90% | 
13 | COc1cc(N2CCOCC2)cc2c1nc(C)c1c(C)nc(-c3ccncc3C)n12 | > 90% | 
14 | COc1ccc2nc(C)c3c(C)nc(-c4ccncc4C)n3c2n1 | > 90% | 
15 | COc1cc(F)c2nc(C)c3c(C)nc(-c4c(C)nn(C)c4C)n3c2c1 | > 90% | 
16 | COc1ccc2nc(C)c3c(C)nc(-c4sc(C)nc4C)n3c2n1 | > 90% | 
17 | COc1ccc(Cl)c(-c2nc(C(F)(F)F)c3c(C)nc4ccc(OC)nc4n23)c1 | > 90% | 
18 | Cc1ccccc1-c1nc(C)c2c(C)nc3ccc(F)cc3n12 | > 90% | 
19 | COc1ccc2nc(C)c3c(C)nc(-c4c(C)noc4C)n3c2n1 | > 90% | 
20 | COc1ccc2nc(C)c3c(C)nc(-c4ccccc4C(N)=O)n3c2n1 | > 90% | 
21 | COc1cc(F)cc2c1nc(C)c1c(C)nc(-c3sc(C)nc3C)n12 | > 90% | 
22 | CCOc1cc(F)cc2c1nc(C)c1c(C)nc(-c3ccccc3C)n12 | > 90% | 
23 | COc1cc(F)c2nc(C)c3c(C)nc(-c4ccncc4C)n3c2c1 | > 90% | 
24 | COc1cc(OC(F)F)cc2c1nc(C)c1c(C)nc(-c3cccnc3C)n12 | > 90% | AUC [2]: 12700 ng·h/mL; Vdss (Canis familiaris [3]): 1.1 L/kg; bioavailability [4]: 83%; AUC [5]: 4400 ng·h/mL; bioavailability [6]: 84%; Vdss (Rattus norvegicus [7]): 0.6 L/kg
25 | Cc1cnccc1-c1nc(C)c2c(C)nc3c(F)cc(OC(F)F)cc3n12 | > 90% | 
26 | COc1ccc2nc(C)c3c(C)nc(-c4cccn4C)n3c2n1 | > 90% | 

Row | Compound | Drug uptake [1] | other results
27 | COc1ccc2nc(C)c3c(C(F)(F)F)nc(-c4ccccc4Cl)n3c2n1 | > 90% | 
28 | COc1cc(Cl)c2nc(C)c3c(C)nc(-c4ccncc4C)n3c2c1 | > 90% | 
29 | COc1ccc2nc(C)c3c(C)nc(-c4cccnc4OC)n3c2n1 | > 90% | 
30 | Cc1ccncc1-c1nc(C)c2c(C)nc3c(F)cc(F)cc3n12 | > 90% | 
31 | COc1ccc2nc(C)c3c(C)nc(-c4ccccc4Cl)n3c2n1 | > 90% | 
32 | COc1ccc2nc(C)c3c(C(F)(F)F)nc(-c4ccc(F)cc4Cl)n3c2n1 | > 90% | 
33 | COc1ccc2nc(C)c3c(C(F)(F)F)nc(-c4cc(Cl)ccc4Cl)n3c2n1 | > 90% | 
34 | Cc1ccncc1-c1nc(C)c2c(C)nc3ccc(Cl)cc3n12 | > 90% | 
35 | COc1cc(F)c2nc(C)c3c(C)nc(-c4cccnc4C)n3c2c1 | > 90% | 
36 | COc1cc(F)cc2c1nc(C)c1c(C)nc(-c3cnccc3C)n12 | > 90% | 
37 | COc1ccc2nc(C)c3c(C)nc(-c4cccnc4)n3c2n1 | > 90% | 
38 | COc1ccc2nc(C)c3c(C)nc(-c4cnccc4OC)n3c2n1 | > 90% | 
39 | COc1ccc2nc(C#N)c3c(C)nc(-c4ccccc4Cl)n3c2n1 | > 90% | 
40 | COc1cc(C(F)(F)F)cc2c1nc(C)c1c(C)nc(-c3ccncc3C)n12 | > 90% | 
41 | COc1ccc2nc(C)c3c(C)nc(-c4cnccc4C)n3c2c1 | > 90% | 
42 | COc1ccc2nc(C)c3c(C(F)(F)F)nc(-c4ccccc4C)n3c2n1 | > 90% | 
43 | COc1ccc2nc(C)c3c(C)nc(-c4cc(Cl)ccc4Cl)n3c2n1 | > 90% | 
44 | Cc1cnccc1-c1nc(C)c2c(C)nc3ccc(Cl)cc3n12 | > 90% | 
45 | Cc1cnccc1-c1nc(C)c2c(C)nc3ccc(C(F)(F)F)cc3n12 | > 90% | 
46 | Cc1ccncc1-c1nc(C)c2c(C)nc3ccccc3n12 | > 90% | 
47 | Cc1ncccc1-c1nc(C)c2c(C)nc3ccc(C(F)(F)F)cc3n12 | > 90% | 
48 | COc1cc(F)c2nc(C)c3c(C)nc(-c4cnccc4C)n3c2c1 | > 90% | 
49 | COc1cc(F)cc2c1nc(C)c1c(C)nc(-c3ccccc3C)n12 | > 90% | 
50 | COc1ccc2nc(C)c3c(C)nc(-c4cnccc4C)n3c2n1 | > 90% | Vdss (Rattus norvegicus [8]): 1 L/kg; AUC [2]: 747 ng·h/mL; bioavailability [9]: 25%; AUC [5]: 866 ng·h/mL
51 | COc1ccc2nc(C)c3c(C)nc(-c4ccccc4OC(F)(F)F)n3c2n1 | > 90% | 
52 | COc1ccc2nc(C)c3c(C)nc(-c4cnccc4Cl)n3c2n1 | > 90% | 

Row | Compound | Drug uptake [1] | other results
53 | COc1ccc2nc(C)c3c(C)nc(-c4ccncc4Cl)n3c2n1 | > 90% | 
54 | COc1ccc2nc(C)c3c(C)nc(-c4c(C)nn(C)c4C)n3c2n1 | > 90% | bioavailability [10]: 67%; AUC [2]: 4130 ng·h/mL; Vdss (Rattus norvegicus [11]): 0.7 L/kg; AUC [5]: 2940 ng·h/mL
55 | COc1ccc2nc(C(F)(F)F)c3c(C)nc(-c4ccccc4Cl)n3c2n1 | > 90% | 
56 | Cc1ccncc1-c1nc(C)c2c(C)nc3ccc(F)cc3n12 | > 90% | 
57 | Cc1ccncc1-c1nc(C)c2c(C)nc3ccc(OC(F)(F)F)cc3n12 | > 90% | 
58 | Cc1cnccc1-c1nc(C)c2c(C)nc3c(F)cc(OCC4CC4)cc3n12 | > 90% | 
59 | COc1cc(OC)c2nc(C)c3c(C)nc(-c4cccnc4C)n3c2c1 | > 90% | 
60 | COc1ccc2nc(C)c3c(C)nc(-c4ccccc4OC)n3c2n1 | > 90% | 
61 | COc1cc(N2CCOCC2)cc2c1nc(C)c1c(C)nc(-c3cccnc3C)n12 | > 90% | 
62 | COc1ccc2nc(C)c3c(C)nc(-c4c(C)n[nH]c4C)n3c2n1 | > 90% | 
63 | COc1cc(F)cc2c1nc(C)c1c(C)nc(-c3ccncc3C)n12 | > 90% | Vdss (Rattus norvegicus [8]): 0.9 L/kg; Papp (MDCK [12]): permeable; AUC [2]: 3640 ng·h/mL; bioavailability [9]: 27%; Papp (MDCK [13]): permeable; Vdss (Canis familiaris [14]): 6 L/kg; AUC [5]: 2370 ng·h/mL; bioavailability [15]: 73%
64 | Cc1ccccc1-c1nc(C)c2c(C)nc3c(OC(F)F)cc(F)cc3n12 | > 90% | 
65 | Cc1cnccc1-c1nc(C)c2c(C)nc3c(F)cc(OCC(F)(F)F)cc3n12 | > 90% | 
66 | COc1ccc2nc(C)c3c(C)nc(-c4ccccc4C)n3c2n1 | > 90% | 
67 | COc1ccc2nc(C)c3c(C)nc(-c4cncnc4)n3c2n1 | > 90% | 
68 | COc1ccc2nc(C)c3c(C)nc(-c4cccnc4C)n3c2n1 | > 90% | 
69 | Cc1ccccc1-c1nc(C)c2c(C)nc3c(O)cc(F)cc3n12 | > 90% | 
70 | COc1cc(F)cc2c1nc(C)c1c(C)nc(-c3c(C)nn(C)c3C)n12 | > 90% | 
71 | COc1ccc2nc(C)c3c(C)nc(-c4ccc(F)cc4Cl)n3c2n1 | > 90% | 
72 | COc1ccc2nc(C)c3c(C)nc(-c4sccc4C)n3c2n1 | > 90% | 
73 | COc1ccc2nc(C)c3c(C)nc(-c4cn[nH]c4)n3c2n1 | > 90% | 
74 | Cc1ccccc1-c1nc(C)c2c(C)nc3c(OCC(F)(F)F)cc(F)cc3n12 | > 90% | 
75 | COc1cc(OC)c2nc(C)c3c(C)nc(-c4cnccc4C)n3c2c1 | > 90% | Vdss (Rattus norvegicus [8]): 1.3 L/kg; bioavailability [16]: 100%; AUC [2]: 8850 ng·h/mL; bioavailability [9]: 25%; Vdss (Canis familiaris [17]): 1.6 L/kg; AUC [5]: 3280 ng·h/mL
76 | COc1ccc2nc(C)c3c(C)nc(-c4ccc(C)nc4)n3c2n1 | > 90% | 

Reference: ChEMBL document CHEMBL1914403 (J Med Chem, 2011)
